Test results as given in ChEMBL document CHEMBL6078723, “Novel steroidal β-carboline derivatives as promising antibacterial candidates against methicillin-resistant Staphylococcus aureus” (Eur J Med Chem, 2025).

What was measured:
Assay type in all cases: functional
Staphylococcus aureus [1] = test: Antibacterial activity against methicillin-resistant Staphylococcus aureus CGMCC1.12409
Staphylococcus aureus [2] = test: Antibacterial activity against Staphylococcus aureus CGMCC1.8721
Staphylococcus aureus [3] = test: Antibacterial activity against methicillin-resistant Staphylococcus aureus ATCC 43300
Staphylococcus aureus [4] = test: Antibacterial activity against methicillin-resistant Staphylococcus aureus ATCC 33591
Staphylococcus aureus [5] = test: Bactericidal activity against methicillin-resistant Staphylococcus aureus ATCC 33591 by CLSI based method
Staphylococcus aureus [6] = test: Bactericidal activity against methicillin-resistant Staphylococcus aureus ATCC 43300 by CLSI based method
Staphylococcus aureus [7] = test: Bactericidal activity against methicillin-resistant Staphylococcus aureus CGMCC1.12409 by CLSI based method
Staphylococcus aureus [8] = test: Bactericidal activity against Staphylococcus aureus CGMCC1.8721 by CLSI based method

SMILES | MIC (Staphylococcus aureus [1]) | MIC (Staphylococcus aureus [2]) | MIC (Staphylococcus aureus [3]) | MIC (Staphylococcus aureus [4]) | MBC (Staphylococcus aureus [5]) | MBC (Staphylococcus aureus [6]) | MBC (Staphylococcus aureus [7]) | MBC (Staphylococcus aureus [8])
COc1ccc2[nH]c3c(CC[C@H](C)[C@H]4CC[C@H]5[C@@H]6[C@H](O)C[C@@H]7C[C@H](O)CC[C@]7(C)[C@H]6CC[C@]45C)[n+](Cc4ccccc4C)ccc3c2c1.[Br-] | 16 µg/mL | 16 µg/mL | 16 µg/mL | 16 µg/mL |  |  |  | 
COc1ccc2[nH]c3c(CC[C@H](C)[C@H]4CC[C@H]5[C@@H]6[C@H](O)C[C@@H]7C[C@H](O)CC[C@]7(C)[C@H]6C[C@H](O)[C@]45C)[n+](Cc4ccc(C)cc4)ccc3c2c1.[Br-] | 4 µg/mL | 0.5 µg/mL | 1 µg/mL | 4 µg/mL | 8 µg/mL | 2 µg/mL | 8 µg/mL | 1 µg/mL
CC[n+]1ccc2c([nH]c3ccc(OC)cc32)c1CC[C@H](C)[C@H]1CC[C@H]2[C@@H]3CC[C@@H]4C[C@H](O)CC[C@]4(C)[C@H]3CC[C@]12C.[Br-] | 16 µg/mL | 16 µg/mL | 16 µg/mL | 32 µg/mL |  |  |  | 
COc1ccc2[nH]c3c(CC[C@H](C)[C@H]4CC[C@H]5[C@@H]6[C@H](O)C[C@@H]7C[C@H](O)CC[C@]7(C)[C@H]6CC[C@]45C)[n+](Cc4cccc(Cl)c4)ccc3c2c1.[Br-] | 16 µg/mL | 16 µg/mL | 16 µg/mL | 32 µg/mL |  |  |  | 
CC[n+]1ccc2c([nH]c3ccc(OC)cc32)c1CC[C@H](C)[C@H]1CC[C@H]2[C@@H]3[C@H](O)C[C@@H]4C[C@H](O)CC[C@]4(C)[C@H]3C[C@H](O)[C@]12C.[Br-] | 16 µg/mL | 16 µg/mL | 16 µg/mL | 16 µg/mL |  |  |  | 
COc1ccc(OC)c(C[n+]2ccc3c([nH]c4ccc(OC)cc43)c2CC[C@H](C)[C@H]2CC[C@H]3[C@@H]4[C@H](O)C[C@@H]5C[C@H](O)CC[C@]5(C)[C@H]4CC[C@]23C)c1.[Br-] | 8 µg/mL | 4 µg/mL | 8 µg/mL | 8 µg/mL |  |  |  | 
COc1ccc2[nH]c3c(CC[C@H](C)[C@H]4CC[C@H]5[C@@H]6[C@H](O)C[C@@H]7C[C@H](O)CC[C@]7(C)[C@H]6C[C@H](O)[C@]45C)[n+](Cc4ccc(Br)cc4)ccc3c2c1.[Br-] | 2 µg/mL | 1 µg/mL | 2 µg/mL | 2 µg/mL | 4 µg/mL | 2 µg/mL | 4 µg/mL | 2 µg/mL
COc1ccc2[nH]c3c(CC[C@H](C)[C@H]4CC[C@H]5[C@@H]6[C@H](O)C[C@@H]7C[C@H](O)CC[C@]7(C)[C@H]6C[C@H](O)[C@]45C)[n+](Cc4cccc(F)c4)ccc3c2c1.[Br-] | 2 µg/mL | 1 µg/mL | 1 µg/mL | 2 µg/mL | 2 µg/mL | 2 µg/mL | 4 µg/mL | 2 µg/mL
COc1ccc2[nH]c3c(CC[C@H](C)[C@H]4CC[C@H]5[C@@H]6[C@H](O)C[C@@H]7C[C@H](O)CC[C@]7(C)[C@H]6CC[C@]45C)[n+](Cc4cccc(F)c4)ccc3c2c1.[Br-] | 8 µg/mL | 4 µg/mL | 8 µg/mL | 8 µg/mL |  |  |  | 
CCC[n+]1ccc2c([nH]c3ccc(OC)cc32)c1CC[C@H](C)[C@H]1CC[C@H]2[C@@H]3[C@H](O)C[C@@H]4C[C@H](O)CC[C@]4(C)[C@H]3C[C@H](O)[C@]12C.[Br-] | 16 µg/mL | 16 µg/mL | 16 µg/mL | 16 µg/mL |  |  |  | 
COc1ccc2[nH]c3c(CC[C@H](C)[C@H]4CC[C@H]5[C@@H]6[C@H](O)C[C@@H]7C[C@H](O)CC[C@]7(C)[C@H]6CC[C@]45C)[n+](Cc4ccc(F)cc4)ccc3c2c1.[Br-] | 4 µg/mL | 4 µg/mL | 4 µg/mL | 8 µg/mL |  |  |  | 
CCCC[n+]1ccc2c([nH]c3ccc(OC)cc32)c1CC[C@H](C)[C@H]1CC[C@H]2[C@@H]3[C@H](O)C[C@@H]4C[C@H](O)CC[C@]4(C)[C@H]3CC[C@]12C.[Br-] | 4 µg/mL | 1 µg/mL | 4 µg/mL | 4 µg/mL | 16 µg/mL | 8 µg/mL | 8 µg/mL | 2 µg/mL
CCC[n+]1ccc2c([nH]c3ccc(OC)cc32)c1CC[C@H](C)[C@H]1CC[C@H]2[C@@H]3[C@H](O)C[C@@H]4C[C@H](O)CC[C@]4(C)[C@H]3CC[C@]12C.[Br-] | 2 µg/mL | 1 µg/mL | 2 µg/mL | 2 µg/mL | 4 µg/mL | 2 µg/mL | 4 µg/mL | 2 µg/mL
COc1ccc2[nH]c3c(CC[C@H](C)[C@H]4CC[C@H]5[C@@H]6[C@H](O)C[C@@H]7C[C@H](O)CC[C@]7(C)[C@H]6CC[C@]45C)[n+](Cc4ccc(C)cc4)ccc3c2c1.[Br-] | 16 µg/mL | 16 µg/mL | 16 µg/mL | 16 µg/mL |  |  |  | 
CCCCC[n+]1ccc2c([nH]c3ccc(OC)cc32)c1CC[C@H](C)[C@H]1CC[C@H]2[C@@H]3[C@H](O)C[C@@H]4C[C@H](O)CC[C@]4(C)[C@H]3CC[C@]12C.[Br-] | 16 µg/mL | 8 µg/mL | 16 µg/mL | 16 µg/mL |  |  |  | 
COc1cccc(C[n+]2ccc3c([nH]c4ccc(OC)cc43)c2CC[C@H](C)[C@H]2CC[C@H]3[C@@H]4[C@H](O)C[C@@H]5C[C@H](O)CC[C@]5(C)[C@H]4CC[C@]23C)c1.[Br-] | 8 µg/mL | 4 µg/mL | 8 µg/mL | 8 µg/mL |  |  |  | 
COc1ccc2[nH]c3c(CC[C@H](C)[C@H]4CC[C@H]5[C@@H]6CC[C@@H]7C[C@H](O)CC[C@]7(C)[C@H]6CC[C@]45C)[n+](Cc4ccc(OC(F)(F)F)cc4)ccc3c2c1.[Br-] | 16 µg/mL | 16 µg/mL | 16 µg/mL | 32 µg/mL |  |  |  | 
COc1ccc2[nH]c3c(CC[C@H](C)[C@H]4CC[C@H]5[C@@H]6[C@H](O)C[C@@H]7C[C@H](O)CC[C@]7(C)[C@H]6C[C@H](O)[C@]45C)[n+](Cc4ccccc4C)ccc3c2c1.[Br-] | 4 µg/mL | 0.5 µg/mL | 1 µg/mL | 4 µg/mL | 8 µg/mL | 4 µg/mL | 8 µg/mL | 1 µg/mL
CCCC[n+]1ccc2c([nH]c3ccc(OC)cc32)c1CC[C@H](C)[C@H]1CC[C@H]2[C@@H]3[C@H](O)C[C@@H]4C[C@H](O)CC[C@]4(C)[C@H]3C[C@H](O)[C@]12C.[Br-] | 16 µg/mL | 16 µg/mL | 16 µg/mL | 16 µg/mL |  |  |  | 
COc1ccc2[nH]c3c(CC[C@H](C)[C@H]4CC[C@H]5[C@@H]6[C@H](O)C[C@@H]7C[C@H](O)CC[C@]7(C)[C@H]6C[C@H](O)[C@]45C)[n+](Cc4ccccc4F)ccc3c2c1.[Br-] | 2 µg/mL | 1 µg/mL | 1 µg/mL | 4 µg/mL | 4 µg/mL | 2 µg/mL | 4 µg/mL | 2 µg/mL
CC[n+]1ccc2c([nH]c3ccc(OC)cc32)c1CC[C@H](C)[C@H]1CC[C@H]2[C@@H]3[C@H](O)C[C@@H]4C[C@H](O)CC[C@]4(C)[C@H]3CC[C@]12C.[Br-] | 2 µg/mL | 1 µg/mL | 2 µg/mL | 2 µg/mL | 4 µg/mL | 2 µg/mL | 4 µg/mL | 2 µg/mL
COc1ccc2[nH]c3c(CC[C@H](C)[C@H]4CC[C@H]5[C@@H]6[C@H](O)C[C@@H]7C[C@H](O)CC[C@]7(C)[C@H]6C[C@H](O)[C@]45C)[n+](Cc4ccc(OC(F)(F)F)cc4)ccc3c2c1.[Br-] | 1 µg/mL | 1 µg/mL | 1 µg/mL | 2 µg/mL | 4 µg/mL | 2 µg/mL | 2 µg/mL | 1 µg/mL
COc1ccc2[nH]c3c(CC[C@H](C)[C@H]4CC[C@H]5[C@@H]6[C@H](O)C[C@@H]7C[C@H](O)CC[C@]7(C)[C@H]6CC[C@]45C)[n+](Cc4ccccc4F)ccc3c2c1.[Br-] | 8 µg/mL | 4 µg/mL | 4 µg/mL | 8 µg/mL |  |  |  | 
COc1ccc2[nH]c3c(CC[C@H](C)[C@H]4CC[C@H]5[C@@H]6CC[C@@H]7C[C@H](O)CC[C@]7(C)[C@H]6CC[C@]45C)[n+](Cc4ccc(C(F)(F)F)cc4)ccc3c2c1.[Br-] | 16 µg/mL | 16 µg/mL | 16 µg/mL | 32 µg/mL |  |  |  | 
COc1ccc2[nH]c3c(CC[C@H](C)[C@H]4CC[C@H]5[C@@H]6[C@H](O)C[C@@H]7C[C@H](O)CC[C@]7(C)[C@H]6CC[C@]45C)[n+](Cc4ccc(OC(F)(F)F)cc4)ccc3c2c1.[Br-] | 16 µg/mL | 16 µg/mL | 16 µg/mL | 16 µg/mL |  |  |  | 
COc1ccc2[nH]c3c(CC[C@H](C)[C@H]4CC[C@H]5[C@@H]6[C@H](O)C[C@@H]7C[C@H](O)CC[C@]7(C)[C@H]6CC[C@]45C)[n+](Cc4ccc(Br)cc4)ccc3c2c1.[Br-] | 16 µg/mL | 16 µg/mL | 16 µg/mL | 32 µg/mL |  |  |  | 
COc1ccc2[nH]c3c(CC[C@H](C)[C@H]4CC[C@H]5[C@@H]6[C@H](O)C[C@@H]7C[C@H](O)CC[C@]7(C)[C@H]6C[C@H](O)[C@]45C)[n+](Cc4ccc(F)cc4)ccc3c2c1.[Br-] | 1 µg/mL | 0.5 µg/mL | 1 µg/mL | 2 µg/mL | 2 µg/mL | 2 µg/mL | 2 µg/mL | 1 µg/mL
